Assay results taken from patent US8932597B2 (priority 2008, dated 2015).

Tests used:
mAb 8i10 = type: binding, human
2N9 control antibody = type: binding
14C2 antibody = type: binding
mAb 23K12 = type: binding, human
HuM2e antibody 8I10 = type: binding, human
HuM2e antibody 23K12 = type: binding, human
[1] = system: anti-M2 human monoclonal antibody Z3G1; type: binding

Substance	Binding activity to truncated M2 peptides, ELISA absorbance at 450 nm, 8i10 (mAb 8i10)	Binding activity to truncated M2 peptides, ELISA absorbance at 450 nm, 2N9 (2N9 control antibody)	Binding activity to truncated M2 peptides, ELISA absorbance at 450 nm, 14C2 (14C2 antibody)	Binding activity to truncated M2 peptides, ELISA absorbance at 450 nm, 23K12 (mAb 23K12)	other results
ETPIRNEWGCRCNDSSD [CM17]	0.11	0.11			
VETPIRNEWGCR [M12]	0.09	0.09	0.15	0.20	
NEWGCRCNDSSD [CM12]	0.14	0.14	0.27	0.39	
SLLTEVETP [NM9]	0.12	0.19			
SLLTEVETPIRNEWG [NM15]	0.12	0.11			
RNEWGCRCNDSSD [CM13]	0.14	0.13			
SLLTEVET [NM8]	0.10	0.09	0.15	0.20	
LTEVETPIRNEWGCR [M15]	0.09	0.09			
TPIRNEWGCRCNDSSD [CM16]	0.13	0.12	0.23	0.35	
SLLTEVETPIRNEW [NM14]	0.11	0.09			
SLLTEVETPIR [NM11]	0.13	0.12	0.21	0.30	
SLLTEVETPIRNEWGC [NM16]	0.29	0.09	3.90	0.62	
SLLTEVETPIRNE [NM13]	0.11	0.10			
SLLTEVETPIRN [NM12]	0.10	0.09	0.20	0.24	
SLLTEVE [NM7]	0.10	0.08	0.14	0.20	
LLTEVETPIRNEWGCR [M16]	0.09	0.09	3.94	0.21	

Substance	Binding activity to truncated M2 peptides, ELISA absorbance at 450 nm, 8i10 (mAb 8i10)	Binding activity to truncated M2 peptides, ELISA absorbance at 450 nm, 2N9 (2N9 control antibody)	Binding activity to truncated M2 peptides, ELISA absorbance at 450 nm, 14C2 (14C2 antibody)	Binding activity to truncated M2 peptides, ELISA absorbance at 450 nm, 23K12 (mAb 23K12)	other results
CSLLTECGSLLTCV (epitope peptide) [SEQ ID NO: 463]					Binding to 8I10 (in words) (HuM2e antibody 8I10): very best specific binder; Binding to 23K12 (in words) (HuM2e antibody 23K12): very best specific binder
SLLTEVETPIRNEWGCR [NM17]	0.26	0.10	3.99	0.58	
PIRNEWGCRCNDSSD [CM15]	0.12	0.11			
SLLTEVETPI [NM10]	0.10	0.10	0.17	0.24	
SLLTEVETPIRNEWGCRCNDSSD [M2]	0.11	0.06	3.85	0.22	
IRNEWGCRCNDSSD [CM14]	0.14	0.13	0.23	0.36	
MSLLTEVETPIRNEWGCRCNDSSD [M2e]	0.13	0.10	3.98	0.43	
682 (SLLTEVETPIRNEWGSRCNDSSD; epitope peptide) [compound 682]					Signal (peptides that show specific binding to Z3G1) [1]: 2346; Signal (peptides that bind to 23K21 and 8I10) (HuM2e antibody 23K12): 729
213 (CETPIRNEWGSRSNDSCSLLTEVETC; epitope peptide) [compound 213]					Signal (peptides that show specific binding to Z3G1) [1]: 1997; Signal (peptides that bind to 23K21 and 8I10) (HuM2e antibody 23K12): 971
534 (SLLTEVEKPIRNEWGCRCNDSSD; epitope peptide) [compound 534]					Signal (peptides that show specific binding to Z3G1) [1]: 2505; Signal (peptides that bind to 23K21 and 8I10) (HuM2e antibody 23K12): 963
412 (SLLTEVETPIRNEWGCRCNDNSD; epitope peptide) [compound 412]					Signal (peptides that bind to Z3G1) [1]: 2389; Signal (peptides that bind to 23K21 and 8I10) (HuM2e antibody 23K12): 708
337 (SLLTEVETPIRNEWGCRCNYSSD; epitope peptide) [compound 337]					Signal (peptides that bind to Z3G1) [1]: 2475; Signal (peptides that bind to 23K21 and 8I10) (HuM2e antibody 23K12): 1666
375 (SLLTEVETPIRNEWGCRVNDSSD; epitope peptide) [compound 375]					Signal (peptides that show specific binding to Z3G1) [1]: 2316; Signal (peptides that bind to 23K21 and 8I10) (HuM2e antibody 23K12): 1446
390 (CLLTEVGSLLTEV; epitope peptide) [compound 390]					Signal (peptides that show specific binding to Z3G1) [1]: 2494; Signal (peptides that bind to 23K21 and 8I10) (HuM2e antibody 23K12): 1349
470 (MSLLTEVGCSLLTEC; epitope peptide) [compound 470]					Signal (peptides that bind to Z3G1) [1]: 2349; Signal (peptides that bind to 23K21 and 8I10) (HuM2e antibody 23K12): 1227
